Assay results: patent publication US9393316B2, “Cancer targeting peptides for enhancing anti-cancer drug delivery and therapeutic efficiencies” (priority 2014, dated 2016)
Values belong to the compound of their own block, whether it stands above or below them.

Experiments:
[1] = test system: colorectal cancer; experiment: Cytotoxicity of several anticancer drugs; assay type: cell-based; conditions: compared with other colon and rectal cancer drugs approved by the FDA
[2] = test system: HCT116 xenografts; experiment: In vivo peptide competitive inhibition of phage tumor homing; design: species or system mice; conditions: co-injected with corresponding phage clone
Experimental: (§1) Non-obese diabetic-severe combined immunodeficiency (NOD/SCID) mice were injected subcutaneously (s.c.) into the dorsolateral flank with 5×10^6 HCT116 cells. When the xenograft tumor size reached 300±50 mm^3, the mice were injected intravascularly (i.v.) with 2×10^11 pfu of the targeting phage or control phage M13KO7. Seven min after injection, the mice were sacrificed and perfused through the heart with 50 mL of PBS to wash unbound phages. After perfusion, xenograft tumor and mouse organs were taken out, washed three times with cold PBS, and cut into pans, with some of them homogenized. The phages bound to each tissue sample were recovered by log-phase Escherichia coli ER2738 culture and were titered on LB/IPTG/X-Gal agar plates. In peptide competitive inhibition experiments, 2×10^9 pfu of phage was co-injected with 100 μg of corresponding peptide or an unrelated control peptide.
The tumor-homing ability of HCT63, HCT69 and HCT74 phages were further confirmed by peptide competitive inhibition experiment. Mice bearing HCT116 xenografts were co-injected with HCT63, HCT69 and HCT74 phages clones and the homologous cognate synthetic peptide; pHCT63, pHCT69 and pHCT74 peptides (SEQ ID NOs: 1-3, respectively), respectively.

[3] = test system: HCT116 cells; experiment: ELISA screening of phage clones on HCT116 cells (cellular ELISA); assay type: binding, human; conditions: HCT116, cell line panel
Experimental: (§2) The selected phages were further identified by ELISA screening. 1×10^4 cells were seeded into each well of 96-well ELISA plates (Falcon, Calif., USA) overnight and were fixed with 2% paraformaldehyde or methanol/acetone (1:1) for 10 min at RT. The plates were washed twice with PBS and were blocked with 1% BSA in PBS (w/v) for 30 min at RT. Then individual phage clones were added and incubated for 1 hr at RT. Following washing three times with PBS, the plates were incubated with horseradish peroxidase (HRP)-conjugated mouse anti-M13 phage antibody (GE Healthcare) at 1:2000 dilution for 1 hr at RT. The plates were washed three times with PBS again, and were subsequently incubated with the peroxidase substrate o-phenylenediamine dihydrochloride (OPD; Sigma) plus H2O2. The reaction was terminated by 3 N HCl, and the absorbance was measured using microplate reader (Model 680, BioRad) at 490 nm.

[4] = test system: COLO205; experiment: Flow cytometry surface binding of phage clones; design: species or system human
Experimental: (§3) Cells were grown to 70-80% confluence and were harvested with 10 mM EDTA in PBS. Peripheral blood mononuclear cells were prepared by using Ficoll-Paque Plus density gradient separation. After washing and suspending the cells with FACS buffer (PBS containing 1% fetal bovine serum), the cells were incubated for 1 hr at 4° C. with 5×10^9, 1×10^9 cfu individual phage clones or control phage, respectively. After washing twice with FACS buffer, cells were incubated with mouse anti-M13 monoclonal antibody (GE Healthcare) at 1:2000 dilution for 1 hr followed by 30 min with phycoerythrin (PE)-conjugated goat anti-mouse secondary antibody (Jackson ImmunoResearch) at 1:250 dilution at 4° C. The emission fluorescence signals were measured using FACSCantoll (Becton Dickinson) and were analyzed by FlowJo software.

[5] = test system: HCT116 cells; experiment: Flow cytometry surface binding of phage clones; design: species or system human
Experimental: as §3

[6] = test system: HT29; experiment: Flow cytometry surface binding of phage clones; design: species or system human
Experimental: as §3

[7] = test system: LS174T; experiment: Flow cytometry surface binding of phage clones; design: species or system human
Experimental: as §3

[8] = test system: SW620; experiment: Flow cytometry surface binding of phage clones; design: species or system human
Experimental: as §3

[9] = test system: peripheral blood mononuclear cells (PBMC); experiment: Flow cytometry binding of phage clones to normal cells; conditions: human PBMC
Experimental: as §3

[10] = test system: HCT116 xenografts; experiment: In vivo tumor homing, phage titer in tumor and organs; design: species or system mice; conditions: 2×10^11 pfu i.v., PBS perfusion; vs brain, lungs, heart
Experimental: as §1
To investigate the targeting ability of the selected phage clones in vivo, mice bearing HCT116 xenografts (300 mm^3) were injected with 2×10^11 pfu of either the selected phages or control phage through the tail vein. Phages were circulated and then were perfused with PBS buffer to wash out non-specific binders in circulation. After perfusion, we recovered and determined the […] of phage in tumor masses and normal organs.

[11] = test system: HCT116 xenografts; experiment: Immunohistochemical localization of phages in xenograft tumor and organs; assay type: in vivo, mice; conditions: tumor vs brain, heart, lungs, colon
Experimental: The tissue samples from in vivo phage homing experiment were embedded in frozen blocks. To evaluate the phage distribution in each tissue by immunohistochemistry, the frozen specimens were cut to 8-μm-thick sections and were collected on coated slides. The slides were washed with cold PBS to remove OCT and were fixed with 4% paraformaldehyde for 10 min at RT. To block endogenous peroxidase activity, the slides were soaked with 3% hydrogen peroxide in methanol for 30 min at RT. The nonspecific antibody binding sites were blocked by immersing the section with 1% BSA in PBS for 30 min at RT. The tissue sections were incubated with mouse anti-M13 monoclonal antibody at 1:250 dilution for 1 hr, followed by adding Super Enhancer reagent (Super SENSITIVE™ Polymer HRP Detection System/DAB, BioGenex) for 20 min and Poly-HRP reagent (BioGenex) for 30 min. After washing, the sections were developed with DAB (3,3′-diaminobenzidine) Chromogen (BioGenex) supplemented with Stable DAB buffer. The reaction was stopped by adding PBS. For nuclei staining, the slides were immersed in hematoxylin for 5 min, and were then mounted with mounting solution to terminate the reaction. The images of sections were taken and analyzed using automated acquisition system (TissueGnostics).

[12] = test system: 1112SK; experiment: Cellular ELISA of phage clones; assay type: binding, human
Experimental: as §2, with “nm. To evaluate the binding activities of the three selected phage clones to various human cancer cell lines, cellular ELISA was performed to detect sixteen types of human cancer cell lines, including A498, HTB-10, B16-F10, SKOV3, PC-3, U2OS, 1112SK, […], SAS, H460, MIA Paca-2, HCT116, HUVAC, CL1-5, Mahlavu, and MDA-MB-231.” for “nm.”

[13] = test system: A498; experiment: Cellular ELISA of phage clones; assay type: binding, human
Experimental: as §2, with “nm. To evaluate the binding activities of the three selected phage clones to various human cancer cell lines, cellular ELISA was performed to detect sixteen types of human cancer cell lines, including A498, HTB-10, B16-F10, SKOV3, PC-3, U2OS, 1112SK, […], SAS, H460, MIA Paca-2, HCT116, HUVAC, CL1-5, Mahlavu, and MDA-MB-231.” for “nm.”

[14] = test system: CL1-5; experiment: Cellular ELISA of phage clones; assay type: binding, human
Experimental: as §2, with “nm. To evaluate the binding activities of the three selected phage clones to various human cancer cell lines, cellular ELISA was performed to detect sixteen types of human cancer cell lines, including A498, HTB-10, B16-F10, SKOV3, PC-3, U2OS, 1112SK, […], SAS, H460, MIA Paca-2, HCT116, HUVAC, CL1-5, Mahlavu, and MDA-MB-231.” for “nm.”

[15] = test system: H184; experiment: Cellular ELISA of phage clones; assay type: binding, human
Experimental: as §2, with “nm. To evaluate the binding activities of the three selected phage clones to various human cancer cell lines, cellular ELISA was performed to detect sixteen types of human cancer cell lines, including A498, HTB-10, B16-F10, SKOV3, PC-3, U2OS, 1112SK, […], SAS, H460, MIA Paca-2, HCT116, HUVAC, CL1-5, Mahlavu, and MDA-MB-231.” for “nm.”

[16] = test system: H460; experiment: Cellular ELISA of phage clones; assay type: binding, human
Experimental: as §2, with “nm. To evaluate the binding activities of the three selected phage clones to various human cancer cell lines, cellular ELISA was performed to detect sixteen types of human cancer cell lines, including A498, HTB-10, B16-F10, SKOV3, PC-3, U2OS, 1112SK, […], SAS, H460, MIA Paca-2, HCT116, HUVAC, CL1-5, Mahlavu, and MDA-MB-231.” for “nm.”

[17] = test system: HUVAC; experiment: Cellular ELISA of phage clones; assay type: binding, human
Experimental: as §2, with “nm. To evaluate the binding activities of the three selected phage clones to various human cancer cell lines, cellular ELISA was performed to detect sixteen types of human cancer cell lines, including A498, HTB-10, B16-F10, SKOV3, PC-3, U2OS, 1112SK, […], SAS, H460, MIA Paca-2, HCT116, HUVAC, CL1-5, Mahlavu, and MDA-MB-231.” for “nm.”

[18] = test system: MDA-MB-231; experiment: Cellular ELISA of phage clones; assay type: binding, human
Experimental: as §2, with “nm. To evaluate the binding activities of the three selected phage clones to various human cancer cell lines, cellular ELISA was performed to detect sixteen types of human cancer cell lines, including A498, HTB-10, B16-F10, SKOV3, PC-3, U2OS, 1112SK, […], SAS, H460, MIA Paca-2, HCT116, HUVAC, CL1-5, Mahlavu, and MDA-MB-231.” for “nm.”

[19] = test system: MIA Paca-2; experiment: Cellular ELISA of phage clones; assay type: binding, human
Experimental: as §2, with “nm. To evaluate the binding activities of the three selected phage clones to various human cancer cell lines, cellular ELISA was performed to detect sixteen types of human cancer cell lines, including A498, HTB-10, B16-F10, SKOV3, PC-3, U2OS, 1112SK, […], SAS, H460, MIA Paca-2, HCT116, HUVAC, CL1-5, Mahlavu, and MDA-MB-231.” for “nm.”

[20] = test system: Mahlavu; experiment: Cellular ELISA of phage clones; assay type: binding, human
Experimental: as §2, with “nm. To evaluate the binding activities of the three selected phage clones to various human cancer cell lines, cellular ELISA was performed to detect sixteen types of human cancer cell lines, including A498, HTB-10, B16-F10, SKOV3, PC-3, U2OS, 1112SK, […], SAS, H460, MIA Paca-2, HCT116, HUVAC, CL1-5, Mahlavu, and MDA-MB-231.” for “nm.”

[21] = test system: PC-3; experiment: Cellular ELISA of phage clones; assay type: binding, human
Experimental: as §2, with “nm. To evaluate the binding activities of the three selected phage clones to various human cancer cell lines, cellular ELISA was performed to detect sixteen types of human cancer cell lines, including A498, HTB-10, B16-F10, SKOV3, PC-3, U2OS, 1112SK, […], SAS, H460, MIA Paca-2, HCT116, HUVAC, CL1-5, Mahlavu, and MDA-MB-231.” for “nm.”

[22] = test system: SAS; experiment: Cellular ELISA of phage clones; assay type: binding, human
Experimental: as §2, with “nm. To evaluate the binding activities of the three selected phage clones to various human cancer cell lines, cellular ELISA was performed to detect sixteen types of human cancer cell lines, including A498, HTB-10, B16-F10, SKOV3, PC-3, U2OS, 1112SK, […], SAS, H460, MIA Paca-2, HCT116, HUVAC, CL1-5, Mahlavu, and MDA-MB-231.” for “nm.”

[23] = test system: SKOV3; experiment: Cellular ELISA of phage clones; assay type: binding, human
Experimental: as §2, with “nm. To evaluate the binding activities of the three selected phage clones to various human cancer cell lines, cellular ELISA was performed to detect sixteen types of human cancer cell lines, including A498, HTB-10, B16-F10, SKOV3, PC-3, U2OS, 1112SK, […], SAS, H460, MIA Paca-2, HCT116, HUVAC, CL1-5, Mahlavu, and MDA-MB-231.” for “nm.”

[24] = test system: U2OS; experiment: Cellular ELISA of phage clones; assay type: binding, human
Experimental: as §2, with “nm. To evaluate the binding activities of the three selected phage clones to various human cancer cell lines, cellular ELISA was performed to detect sixteen types of human cancer cell lines, including A498, HTB-10, B16-F10, SKOV3, PC-3, U2OS, 1112SK, […], SAS, H460, MIA Paca-2, HCT116, HUVAC, CL1-5, Mahlavu, and MDA-MB-231.” for “nm.”

[25] = test system: B16-F10; experiment: Cellular ELISA of phage clones; assay type: binding, mouse
Experimental: as §2, with “nm. To evaluate the binding activities of the three selected phage clones to various human cancer cell lines, cellular ELISA was performed to detect sixteen types of human cancer cell lines, including A498, HTB-10, B16-F10, SKOV3, PC-3, U2OS, 1112SK, […], SAS, H460, MIA Paca-2, HCT116, HUVAC, CL1-5, Mahlavu, and MDA-MB-231.” for “nm.”

Compound: CCC1=C[C@@H]2CN(C1)Cc1c([nH]c3ccccc13)[C@@](C(=O)OC)(c1cc3c(cc1OC)N(C)[C@H]1[C@@](O)(C(=O)OC)[C@H](OC(C)=O)[C@]4(CC)C=CCN5CC[C@]31[C@@H]54)C2 [Vinorelbine, vinorelbine]
- cytotoxicity profile [1]: significantly better cytotoxicity profiles

Compound: RLNLDIIAVTSV (HCT-63) [pHCT63]
- inhibition of phage recovery from tumor tissue by cognate peptide [2]: markedly inhibited the recovery of phage particles from tumor tissue

- binding activity by FACS [4]: moderately
- binding activity by FACS [6]: reacted strongly
- binding activity by FACS [7]: reacted strongly
- binding activity by FACS [8]: reacted strongly
- binding by cellular ELISA [12]: high binding specificity
- binding by cellular ELISA [13]: high binding specificity
- binding by cellular ELISA [14]: high binding specificity
- binding by cellular ELISA [15]: high binding specificity
- binding by cellular ELISA [16]: high binding specificity
- binding by cellular ELISA [17]: high binding specificity
- binding by cellular ELISA [18]: high binding specificity
- binding by cellular ELISA [19]: high binding specificity
- binding by cellular ELISA [20]: high binding specificity
- binding by cellular ELISA [21]: high binding specificity
- binding by cellular ELISA [22]: high binding specificity
- binding by cellular ELISA [23]: high binding specificity
- binding by cellular ELISA [24]: high binding specificity
- binding by cellular ELISA [25]: high binding specificity
Compound: RLNLDIIAVTSV [HCT63]
- binding by cellular ELISA [3]: high binding specificity
- cell surface-binding activity by flow cytometry [5]: reacted strongly
- binding activity to PBMC (normal cells) by FACS [9]: not to normal cells
- phage accumulation in tumor mass vs normal organs (phage titer) [10]: significantly accumulated in the tumor mass
- phage localization by immunostaining of tissue sections [11]: selectively localized in tumor tissues
- phage localization by immunostaining of tissue sections ([11]; listed as HCT-63): strong accumulated in the tumor
